In ChEMBL document CHEMBL2417501, “Synthesis of 4-aminoquinoline-pyrimidine hybrids as potent antimalarials and their mode of action studies” (Eur J Med Chem, 2013):

Experiments:
Plasmodium falciparum = assay: Antimalarial activity against chloroquine-resistant Plasmodium falciparum Dd2; type: functional, organism-based
[1] = Cytotoxicity against human HeLa cells; type: cell-based
[2] = Cytotoxicity against human HEL cells; type: cell-based
MDCK = assay: (§1) Cytotoxicity against MDCK cells assessed as cell viability after 4 days by MTS assay; type: cell-based, Canis lupus familiaris; details: dog, mdck, 96 h
[3] = as §1; type: cell-based, Canis lupus familiaris; details: dog, MDCK cells
Human alphaherpesvirus 2 = assay: Antiviral activity against Herpes simplex virus-2 G infected in human HEL cells assessed as reduction of virus-induced cytopathogenicity; type: functional, organism-based; details: Human alphaherpesvirus 2, strain G
Influenza A virus [4] = assay: Antiviral activity against influenza A virus H1N1 subtype infected in dog MDCK cells assessed as reduction of virus-induced cytopathogenicity by MTS assay; type: functional, organism-based
Cytomegalovirus [5] = assay: Antiviral activity against Cytomegalovirus AD-169 infected in human HEL cells assessed as reduction of plaque formation; type: functional, organism-based; details: Human betaherpesvirus 5, AD-169, HEL
[6] = Cytotoxicity against african green monkey Vero cells; type: cell-based; details: chlorocebus sabaeus
Human alphaherpesvirus 3 [7] = assay: Antiviral activity against […] Varicella-zoster virus 07-1 infected in human HEL cells assessed as reduction of plaque formation; type: functional, organism-based; details: Human alphaherpesvirus 3, 07-1, HEL
DNA [8] = assay: Binding affinity to calf thymus DNA assessed as change in melting temperature at 30 uM by UV-visible spectrophotometry; type: nucleic-acid assay; details: Bos taurus
Influenza A virus [9] = assay: Antiviral activity against influenza A virus […] subtype infected in dog MDCK cells assessed as reduction of virus-induced cytopathogenicity by MTS assay; type: functional, organism-based; details: read-out: EC50
Coxsackievirus [10] = assay: Antiviral activity against Coxsackievirus B4 infected in african green monkey Vero cells assessed as reduction of virus-induced cytopathogenicity; type: functional, organism-based
[11] = system: Mammalian orthoreovirus 1; assay: Antiviral activity against Reovirus-1 infected in african green monkey Vero cells assessed as reduction of virus-induced cytopathogenicity; type: functional, organism-based; details: Mammalian orthoreovirus 1, Vero
Feline coronavirus = assay: Antiviral activity against Feline coronavirus infected in cat CRFK cells assessed as reduction of virus-induced cytopathogenicity by MTS assay; type: functional, organism-based; details: Alphacoronavirus 1, CRFK
[12] = Inhibition of beta-hematin formation at 1 mg/ml; type: functional
Felid alphaherpesvirus 1 = assay: Antiviral activity against feline herpesvirus infected in cat CRFK cells assessed as reduction of virus-induced cytopathogenicity by MTS assay; type: functional, organism-based; details: Felid alphaherpesvirus 1, CRFK
[13] = Selectivity index, ratio of CC50 for MDCK cells to IC50 for chloroquine-resistant Plasmodium falciparum Dd2; type: functional
[14] = Cytotoxicity against cat CRFK cells; type: cell-based, Felis catus; details: crfk
Punta Toro virus = assay: Antiviral activity against […] infected in african green monkey Vero cells assessed as reduction of virus-induced cytopathogenicity; type: functional, organism-based
[15] = system: Vesicular stomatitis virus; assay: Antiviral activity against Vesicular stomatitis virus infected in human HEL cells assessed as reduction of virus-induced cytopathogenicity; type: functional, organism-based
mu-oxodimeric heme = assay: Binding affinity to mu-oxodimericheme (unknown origin) in phosphate buffer at pH 5.8 at 1 to 25 uM by UV-visible spectrophotometry
Human alphaherpesvirus 1 [16] = assay: Antiviral activity against TK-negative Herpes simplex virus 1 KOS infected in human HEL cells assessed as reduction of virus-induced cytopathogenicity; type: functional, organism-based; details: Human alphaherpesvirus 1, KOS
Influenza B virus = assay: Antiviral activity against influenza B virus infected in dog MDCK cells assessed as reduction of virus-induced cytopathogenicity by MTS assay; type: functional, organism-based
Sindbis virus = assay: Antiviral activity against Sindbis virus infected in african green monkey Vero cells assessed as reduction of virus-induced cytopathogenicity; type: functional, organism-based
DNA [17] = assay: Binding affinity to calf thymus DNA assessed as compound DNA intercalation measured as hypochromatic shift at 330 nm at 30 uM by UV-visible spectrophotometry; type: nucleic-acid assay; details: Bos taurus
Human alphaherpesvirus 1 [18] = assay: Antiviral activity against Herpes simplex virus-1 KOS infected in human HEL cells assessed as reduction of virus-induced cytopathogenicity; type: functional, organism-based; details: Human alphaherpesvirus 1, KOS
Cytomegalovirus [19] = assay: Antiviral activity against Cytomegalovirus Davis infected in human HEL cells assessed as reduction of plaque formation; type: functional, organism-based; details: Human betaherpesvirus 5, Davis
[20] = system: Vesicular stomatitis virus; assay: Antiviral activity against Vesicular stomatitis virus infected in human HeLa cells assessed as reduction of virus-induced cytopathogenicity; type: functional, organism-based
Human respirovirus 3 = assay: Antiviral activity against Parainfluenza-3 virus infected in african green monkey Vero cells assessed as reduction of virus-induced cytopathogenicity; type: functional, organism-based; details: Human respirovirus 3, Vero
Coxsackievirus [21] = assay: Antiviral activity against Coxsackievirus B4 infected in human HeLa cells assessed as reduction of virus-induced cytopathogenicity; type: functional, organism-based
Heme [22] = assay: Binding affinity to monomeric heme (unknown origin) in HEPES buffer at pH 7.4 at 1 to 25 uM by UV-visible spectrophotometry
DNA [23] = assay: Binding affinity to calf thymus DNA at 30 uM by fluorescence assay; type: nucleic-acid assay; details: Bos taurus
Escherichia coli = assay: Binding affinity to Escherichia coli pUC18 DNA at 30 uM by fluorescence assay
Human alphaherpesvirus 3 [24] = assay: Antiviral activity against TK-positive Varicella-zoster virus OKA infected in human HEL cells assessed as reduction of plaque formation; type: functional, cell-based; details: Human alphaherpesvirus 3, strain Oka vaccine
Heme [25] = assay: Binding affinity to monomeric heme (unknown origin) in MES buffer at pH 5.6 at 1 to 25 uM by UV-visible spectrophotometry
DNA [26] = assay: Binding affinity to calf thymus DNA assessed as compound DNA intercalation measured as hypochromatic shift at 255 nm at 30 uM by UV-visible spectrophotometry; type: nucleic-acid assay; details: Bos taurus
[27] = system: Respiratory syncytial virus; assay: Antiviral activity against Respiratory syncytial virus infected in human HeLa cells assessed as reduction of virus-induced cytopathogenicity; type: functional, organism-based

With `Cc1nc(NCCCCNc2ccnc3cc(Cl)ccc23)nc(-c2ccccc2)c1C(=O)OC(C)C` the IC50 (Plasmodium falciparum) was 0.153 µM, the MCC [1] was > 100 µM and the MCC [2] was 20 µM. The CC50 (MDCK) was 0.6 µM, the MCC at 96 h [3] was 800 nM and the EC50 (Human alphaherpesvirus 2) was > 4 µM. The EC50 (Influenza A virus [4]) was > 0.16 µM, the EC50 (Cytomegalovirus [5]) was > 4 µM and the MCC [6] was 20 µM. For the same compound, the EC50 (Human alphaherpesvirus 3 [7]) was > 4 µM, the ΔTm (DNA [8]) was 7.5 °C and the EC50 (Influenza A virus [9]) was > 0.16 µM. For the same compound, the EC50 (Coxsackievirus [10]) was > 4 µM, the EC50 [11] was > 4 µM and the EC50 (Feline coronavirus) was > 20 µM. The inhibition [12] was 72%, the EC50 (Felid alphaherpesvirus 1) was > 20 µM and the “Ratio CC50/IC50” value [13] was 3.92. The CC50 [14] was 50.6 µM, the EC50 (Punta Toro virus) was > 4 µM and the EC50 [15] was > 4 µM. For the same compound, the log K (mu-oxodimeric heme) was 5.72, the EC50 (Human alphaherpesvirus 1 [16]) was > 4 µM and the EC50 (Influenza B virus) was > 0.16 µM. For the same compound, the EC50 (Sindbis virus) was > 4 µM, the Activity (DNA [17]) was 37% and the EC50 (Human alphaherpesvirus 1 [18]) was > 4 µM. The EC50 (Cytomegalovirus [19]) was > 4 µM, the EC50 [20] was > 100 µM and the EC50 (Human respirovirus 3) was > 4 µM. For the same compound, the EC50 (Coxsackievirus [21]) was > 100 µM, the log K (Heme [22]) was 4.96 and the log K (DNA [23]) was 5.76. For the same compound, the log K (Escherichia coli) was 5.73, the EC50 (Human alphaherpesvirus 3 [24]) was 4 µM and the log K (Heme [25]) was 4.58. For the same compound, the Activity (DNA [26]) was 112% and the EC50 [27] was > 100 µM.
